Measured values as given in ChEMBL document CHEMBL5260807, “Discovery of liver-directed glucokinase activator having anti-hyperglycemic effect without hypoglycemia” (Eur J Med Chem, 2017).
Blank lines part the entries; values can stand above or below the compound they belong to.

Tests used:
[1] = molecular target: T1, Hexokinase-4 (Homo sapiens, UniProt P35557); assay: Activation of recombinant human glucokinase assessed as increase in maximal activation by measuring accumulation of NADH in presence of S0.5 of glucose and NAD by plate reader analysis
T1 sequence (P35557 whole entry): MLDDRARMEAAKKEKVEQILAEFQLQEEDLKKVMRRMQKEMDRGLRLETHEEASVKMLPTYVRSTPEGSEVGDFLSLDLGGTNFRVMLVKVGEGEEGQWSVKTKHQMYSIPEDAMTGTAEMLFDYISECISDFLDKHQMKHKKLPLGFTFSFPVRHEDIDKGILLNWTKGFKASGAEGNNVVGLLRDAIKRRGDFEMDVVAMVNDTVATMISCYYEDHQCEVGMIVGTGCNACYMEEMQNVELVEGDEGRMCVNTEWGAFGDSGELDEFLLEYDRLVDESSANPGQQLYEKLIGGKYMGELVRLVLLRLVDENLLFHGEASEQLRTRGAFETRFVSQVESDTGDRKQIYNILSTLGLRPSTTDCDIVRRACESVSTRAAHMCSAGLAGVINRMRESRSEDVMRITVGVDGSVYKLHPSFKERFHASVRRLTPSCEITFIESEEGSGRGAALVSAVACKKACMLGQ

[2] = Drug uptake in mouse hepatocytes at 1 to 100 uM incubated for 5 mins at 37 degreeC by LC-MS/MS analysis; format: ADME, cell-based, Hepatocyte; details: dose 1-100 µM
[3] = Drug uptake in mouse hepatocytes at 1 to 100 uM incubated for 5 mins at 4 degreeC by LC-MS/MS analysis; format: ADME, cell-based, Hepatocyte; details: dose 1-100 µM
[4] = Drug distribution in C57BL/6J mouse in circulatory system at 30 mg/kg,po and measured after 3 hrs; format: ADME, organism-based; details: read-out: Drug uptake
[5] = Volume of distribution at steady state in C57BL/6J mouse at 1 mg/kg,iv and measured after 2 hrs by LC-MS/MS analysis; format: ADME, organism-based; details: in vivo, read-out: Vdss
[6] = Oral bioavailability in C57BL/6J mouse at 30 mg/kg and measured after 2 hrs by LC-MS/MS analysis; format: ADME, organism-based; details: in vivo
[7] = Inhibition of drug uptake in mouse hepatocytes at 1 to 100 uM incubated for 5 mins in presence of rifamycin SV by LC-MS/MS analysis; format: cell-based, Hepatocyte; details: dose 1-100 µM
[8] = Drug distribution in C57BL/6J mouse in circulatory system at 30 mg/kg,po and measured after 1 hrs by LC-MS/MS analysis; format: ADME, organism-based; details: read-out: Drug uptake
[9] = Half life in C57BL/6J mouse at 1 mg/kg,iv and measured after 2 hrs by LC-MS/MS analysis; format: ADME, organism-based; details: in vivo
[10] = Clearance in C57BL/6J mouse at 1 mg/kg,iv and measured after 2 hrs by LC-MS/MS analysis; format: ADME, organism-based; details: in vivo
[11] = Drug distribution in C57BL/6J mouse liver at 30 mg/kg,po and measured after 1 hrs by LC-MS/MS analysis; format: ADME, organism-based; details: read-out: Drug uptake
[12] = Hypoglycemic activity in normoglycemic C57BL/6J mouse assessed as decrease in blood glucose level at 100 mg/kg ,po and measured upto 180 mins by glucose analysis; format: toxicity, organism-based; details: in vivo, 3 h
[13] = Cmax in C57BL/6J mouse at 30 mg/kg,po and measured after 2 hrs by LC-MS/MS analysis; format: ADME, organism-based; parameters: dose 30 mg/kg, time 2 hrs, route po; details: in vivo
[14] = Drug distribution in C57BL/6J mouse liver at 30 mg/kg,po and measured after 3 hrs by LC-MS/MS analysis; format: ADME, organism-based; details: read-out: Drug uptake
[15] = test system: Mus musculus; assay: Anti-hyperglycemic activity against diet induced obese C57BL/6J mouse assessed as blood glucose level at 10 to 300 mg/kg ,po and measured upto 180 mins by OGTT; format: functional, organism-based; details: dose 10-300 mg/kg
[16] = AUC(0 to 24 hrs) in C57BL/6J mouse at 30 mg/kg,po and measured after 2 hrs by LC-MS/MS analysis; format: ADME, organism-based; parameters: time 2 hrs, dose 30 mg/kg, route po; details: in vivo
[17] = molecular target: T2, Hexokinase-4 (Rattus norvegicus) (UniProt P17712); assay: Activation of glucokinase in rat Primary hepatocytes assessed as fold increase in glycogen synthesis at 10 uM incubated for 30 mins using [U14C]-D-glucose as substrate by Microbeta TriLux luminescence counter analysis; format: cell-based; details: Primary hepatocyte, filed as activator
T2 sequence (whole entry): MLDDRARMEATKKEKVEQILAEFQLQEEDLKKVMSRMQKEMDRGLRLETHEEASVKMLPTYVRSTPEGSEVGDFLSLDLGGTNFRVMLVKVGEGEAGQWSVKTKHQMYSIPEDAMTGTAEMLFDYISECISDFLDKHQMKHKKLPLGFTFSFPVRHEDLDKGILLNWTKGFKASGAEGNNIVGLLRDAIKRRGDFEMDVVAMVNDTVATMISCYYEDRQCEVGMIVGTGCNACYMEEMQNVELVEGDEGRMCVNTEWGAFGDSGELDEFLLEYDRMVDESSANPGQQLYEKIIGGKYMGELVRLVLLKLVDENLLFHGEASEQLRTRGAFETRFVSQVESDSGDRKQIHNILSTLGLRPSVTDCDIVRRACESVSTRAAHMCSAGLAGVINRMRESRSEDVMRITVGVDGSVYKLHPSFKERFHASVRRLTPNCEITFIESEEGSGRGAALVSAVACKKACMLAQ

[18] = molecular target: T3, Hexokinase-4 (Homo sapiens) (UniProt P35557); assay: Activation of recombinant human glucokinase assessed as increase in maximal activation by measuring accumulation of NADH at 60 uM in presence of S0.5 of glucose and NAD by plate reader analysis; details: filed as activator
T3 sequence (whole entry): T1 sequence (P35557 whole entry)

[19] = Volume of distribution at steady state in C57BL/6J mouse at 3 mg/kg,iv and measured after 2 hrs by LC-MS/MS analysis; format: ADME, organism-based; details: in vivo, read-out: Vdss
[20] = Clearance in C57BL/6J mouse at 3 mg/kg,iv and measured after 2 hrs by LC-MS/MS analysis; format: ADME, organism-based; details: in vivo
[21] = Half life in C57BL/6J mouse at 3 mg/kg,iv and measured after 2 hrs by LC-MS/MS analysis; format: ADME, organism-based; details: in vivo
[22] = Hypoglycemic activity in normoglycemic C57BL/6J mouse assessed as decrease in blood glucose level at 300 mg/kg ,po and measured upto 180 mins by glucose analysis; format: toxicity, organism-based; details: in vivo, 3 h
[23] = Hypoglycemic activity in normoglycemic C57BL/6J mouse at 300 mg/kg ,po and measured upto 180 mins by glucose analysis; format: toxicity, organism-based; details: in vivo, 3 h
[24] = test system: Mus musculus; assay: Anti-hyperglycemic activity against diet induced obese C57BL/6J mouse assessed as reduction in AUCglucose level at 100 mg/kg ,po and measured upto 180 mins by OGTT; format: functional; parameters: scale not given: the % may be the effect or the level left; details: 3 h
[25] = test system: Mus musculus; assay: Anti-hyperglycemic activity against diet induced obese C57BL/6J mouse assessed as reduction in AUCglucose level at 30 mg/kg ,po and measured upto 180 mins by OGTT; format: functional; parameters: scale not given: the % may be the effect or the level left; details: 3 h
[26] = AUC(0 to t) in C57BL/6J mouse at 30 mg/kg,po; format: ADME, organism-based; parameters: dose 30 mg/kg, route po; details: in vivo
[27] = Drug uptake in C57BL/6J mouse plasma at 30 mg/kg,po and measured after 1 hrs; format: ADME, organism-based
[28] = Drug uptake in C57BL/6J mouse plasma at 30 mg/kg,po and measured after 3 hrs; format: ADME, organism-based

EC50 [1]: > 10000 nM
SMILES: O=C(O)C1CCN(Cc2cnc(NC(=O)C(Oc3ccc(F)cc3F)c3ccc(S(=O)(=O)C4CC4)cc3)s2)CC1 (centres undefined)

fold change (FC) [17]: 11.4
EC50 [1]: 190 nM
SMILES: O=C(O)c1ccc(Oc2cnc(NC(=O)C(Oc3ccc(F)cc3F)c3ccc(S(=O)(=O)C4CC4)cc3)s2)cc1 (centres undefined)

EC50 [1]: 500 nM
SMILES: O=C(O)Cc1nc(NC(=O)C(Oc2ccc(F)cc2F)c2ccc(S(=O)(=O)N3CCCCC3)cc2)sc1Cl (centres undefined)

EC50 [1]: 2730 nM
SMILES: O=C(O)c1cccc(Oc2cnc(NC(=O)C(Oc3ccc(F)cc3F)c3ccc(S(=O)(=O)C4CC4)cc3)s2)c1 (centres undefined)

fold change (FC) [17]: 3.04
EC50 [1]: 310 nM
SMILES: O=C(O)c1ccc(Oc2cnc(NC(=O)C(Oc3ccc(F)cc3F)c3ccc(S(=O)(=O)C4CCOCC4)cc3)s2)cc1 (centres undefined)

Continued, compound first:

SMILES: O=C(O)c1ccc(Oc2cnc(NC(=O)[C@@H](Oc3ccc(F)cc3F)c3ccc(S(=O)(=O)C4CC4)cc3)s2)cc1
EC50 [1]: 690 nM

SMILES: O=C(O)Cc1ccc(Oc2cnc(NC(=O)C(Oc3ccc(F)cc3F)c3ccc(S(=O)(=O)C4CC4)cc3)s2)cc1 (centres undefined)
EC50 [1]: 400 nM

SMILES: O=C(O)C#Cc1cnc(NC(=O)C(Oc2ccc(F)cc2F)c2ccc(S(=O)(=O)C3CC3)cc2)s1 (centres undefined)
EC50 [1]: 2300 nM

SMILES: CC(C)(Oc1ccc(F)cc1F)C(=O)Nc1nc(CC(=O)O)c(Cl)s1
Drug uptake [2]: < 5%
Drug uptake [3]: 5%
concentration at 3 h [4]: 85 µM
Vd [5]: 0.4 L/kg
bioavailability [6]: 100%
inhibition (INH) ([7]; hepatocytes, 5 min, 100 µM): Not Active
concentration at 1 h [8]: 220 µM
EC50 [1]: 7000 nM
half-life [9]: 1 h
clearance [10]: 3.5 mL/min/kg
concentration at 1 h [11]: 111 µM
Activity [12]: < 60 mg/dL
Cmax [13]: 326 µM
concentration at 3 h [14]: 104 µM
Activity [15]: Dose-Dependent Effect
AUC(0-t) at 2 h [16]: 802 µM·h

SMILES: O=C(O)c1ccc(Oc2cnc(NC(=O)C(Oc3ccc(F)cc3F)c3ccc(S(=O)(=O)N4CCCCC4)cc3)s2)cc1 (centres undefined)
fold change (FC) [17]: 3.4

SMILES: O=C(O)c1ccc(Oc2cnc(NC(=O)C(Oc3ccc(F)cc3F)c3ccc(S(=O)(=O)N4CCOCC4)cc3)s2)cc1 (centres undefined)
fold change (FC) [17]: 3
EC50 [1]: 330 nM

SMILES: CC(Oc1ccc(F)cc1F)(C(=O)Nc1nc(CC(=O)O)c(Cl)s1)c1ccc(S(=O)(=O)N2CCCCC2)cc1 (centres undefined)
Activity [18]: 60%
EC50 [1]: > 20000 nM

SMILES: O=C(O)c1ccc(Oc2cnc(NC(=O)[C@H](Oc3ccc(F)cc3F)c3ccc(S(=O)(=O)C4CC4)cc3)s2)cc1
Vd [19]: 1.67 L/kg
clearance [20]: 32.6 mL/min/kg
half-life [21]: 2.16 h
Drug uptake [2]: 30%
Drug uptake [3]: < 5%
concentration at 3 h [4]: 2.7 µM
bioavailability [6]: 86%
inhibition at 5 min, up to 100 µM ([7]; mouse hepatocytes, with rifamycin SV): 90%
fold change (FC) [17]: 12.2
concentration at 1 h [8]: 6 µM
Activity [22]: Active
EC50 [1]: 34 nM
Activity [23]: Not Active
concentration at 1 h [11]: 215 µM
Activity [24]: 34%
Cmax [13]: 13.3 µM
Activity [25]: 21%
concentration at 3 h [14]: 184 µM
AUC(0-t) [26]: 22 µM·h

SMILES: O=C(O)c1ccc(Cc2cnc(NC(=O)C(Oc3ccc(F)cc3F)c3ccc(S(=O)(=O)C4CC4)cc3)s2)cc1 (centres undefined)
EC50 [1]: 450 nM

SMILES: O=C(O)c1ccc(Oc2cnc(NC(=O)C(Oc3ccc(F)cc3F)c3ccc(S(=O)(=O)N4CCCC4)cc3)s2)cc1 (centres undefined)
fold change (FC) [17]: 3.76
EC50 [1]: 240 nM

SMILES: CC(C)(Oc1ccc(F)cc1F)C(=O)Nc1ncc(Oc2ccc(C(=O)O)cc2)s1
EC50 [1]: 6200 nM
concentration at 1 h [27]: 8.8 µM
concentration at 3 h [28]: 1.4 µM
concentration at 1 h [11]: 23.3 µM
concentration at 3 h [14]: 11.1 µM

SMILES: O=C(Nc1ncc(CN2CCCC2C(=O)O)s1)C(Oc1ccc(F)cc1F)c1ccc(S(=O)(=O)C2CC2)cc1 (centres undefined)
EC50 [1]: > 10000 nM
